# Measurements reported in patent publication US20070196344A1, “Methods for identifying materials that can help regulate the condition of mammalian keratinous tissue” (The Procter & Gamble Company, priority 2006, published 2007).
# Legend:
# Hyaluronic Acid = experiment: Hyaluronic acid ELISA on extracts of treated MatTek EpiDermFT (EFT-200) full thickness skin equivalent cultures; format: cell-based, human; conditions: topical 0.5%, 1.0%, 2.0% in water, 20-24 hours, EFT-200 cultures, vs vehicle Control; dose-responsive
# Protocol: (§1) To evaluate skin anti-aging benefits of n-acetyl glucosamine and niacinamide. An in vitro skin biomarker experiment is conducted using the MatTek Human Skin EpiDermFT Skin Model (EFT 200; MatTek Corp., Ashland, Mass. USA). The MatTek Skin Model is a full thickness culture system that emulates normal human skin properties and function. It contains a three-dimensional, highly differentiated human epidermis with 8-12 cell layers including basal, spinous, granular and stratum corneum layers; the epidermis is grown above a human dermal fibroblast-containing collagen matrix. The MatTek cultures are air-interfaced, so that test substances can be applied topically to the stratum corneum surface. The cultures are supplied in 24-well, medium-supplemented agarose gels.
# (§2) MatTek EFT-200 full thickness skin equivalent cultures used are examined for visual defects and equilibrated overnight after their arrival from the supplier. After treatment with test materials the cultures' viability is confirmed through MTT viability assay. […]
# (§3) After treatment for 20-24 hours, replicate (3) cultures are extracted using a mild extraction buffer (T-per). The extract is then analyzed for hyaluronic acid and procollagen-1.
# (§4) • 1. […] Analyze supernatant with the Micro BCA kit to quantitate protein concentration. • 4. […]
# Procollagen I = Procollagen I ELISA on extracts of treated MatTek EpiDermFT (EFT-200) full thickness skin equivalent cultures; format: cell-based, human; conditions: topical 0.5%, 2.0% in water, 20-24 hours, EFT-200 cultures, vs vehicle Control, dose-responsive
# Protocol: as §1, §2, §3, §4
smiles,measurement,setting,value
CC(=O)N[C@@H]1[C@@H](O)[C@H](O)[C@@H](CO)O[C@H]1O [n-Acetyl Glucosamine],expression of hyaluronic acid,Hyaluronic Acid,significantly increased over Control
same,expression of procollagen 1,Procollagen I,significantly increased over Control
